# Laboratory results published in patent US20250230193A1, “CYCLIC COMPOUND HAVING SELECTIVE KRAS INHIBITORY EFFECT ON HRAS AND NRAS” (CHUGAI SEIYAKU KABUSHIKI KAISHA, priority 2022, published 2025).
# Where a SMILES comes first, the peptide text is derived from it. Bridges are numbered along the chain shown (N, C = ends). [ ]: non-standard residue; d: D form. hPhe(3-Cl-4-CF3) = N[C@@H](CCc1ccc(C(F)(F)F)c(Cl)c1)C(=O)O; NPrPhe(4-CF3) = CCCN[C@@H](Cc1ccc(C(F)(F)F)cc1)C(=O)O; NMeGly(cPent) = CN[C@H](C(=O)O)C1CCCC1; Hyp = O=C(O)[C@@H]1C[C@@H](O)CN1; NMeL = CN[C@@H](CC(C)C)C(=O)O; Ac5c = NC1(C(=O)O)CCCC1; Sar = CNCC(=O)O
# Tests used:
# [1] = molecular target: GDP-bound NRAS wild-type protein (Homo sapiens, UniProt P01111); assay: Binding to NRAS by surface plasmon resonance (SPR), Single Cycle Kinetics; details: SPR
# [2] = molecular target: GDP-bound HRAS wild-type protein (Homo sapiens, UniProt P01112); assay: Binding to HRAS by surface plasmon resonance (SPR), Single Cycle Kinetics; details: SPR
# [3] = KD ratio, GDP-bound NRAS wild-type vs GDP-bound KRAS wild-type
# [4] = KD ratio, GDP-bound HRAS wild-type vs GDP-bound KRAS wild-type
# [5] = GDP-bound NRAS wild-type vs GDP-bound KRAS wild-type
# [6] = GDP-bound HRAS wild-type vs GDP-bound KRAS wild-type
# GDP-bound HRAS wild-type protein, sequence (P01112 whole entry): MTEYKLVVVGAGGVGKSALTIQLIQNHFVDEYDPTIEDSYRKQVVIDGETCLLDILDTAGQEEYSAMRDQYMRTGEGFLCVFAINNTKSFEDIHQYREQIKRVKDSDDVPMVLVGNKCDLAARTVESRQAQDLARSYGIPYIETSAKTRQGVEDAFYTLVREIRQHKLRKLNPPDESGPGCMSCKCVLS
# GDP-bound NRAS wild-type protein, sequence (P01111 whole entry): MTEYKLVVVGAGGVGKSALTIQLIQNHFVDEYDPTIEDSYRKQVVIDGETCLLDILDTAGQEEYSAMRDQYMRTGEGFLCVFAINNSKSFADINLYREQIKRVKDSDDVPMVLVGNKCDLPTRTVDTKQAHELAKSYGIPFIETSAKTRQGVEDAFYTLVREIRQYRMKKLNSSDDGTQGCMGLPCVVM
structure (smiles),measurement,setting,value
CC[C@H](C)[C@@H]1NC(=O)[C@H](CC(C)C)N(C)C(=O)C[C@@H](C(=O)N(C)C)N(C)C(=O)[C@H](C2CCCC2)N(C)C(=O)C2(CCCC2)NC(=O)[C@@H]2CCCN2C(=O)[C@H](CCc2ccc(C(F)(F)F)c(Cl)c2)NC(=O)CN(C)C(=O)[C@H](Cc2ccc(C)cc2)N2CC=CCOC[C@H](C2=O)N(C)C(=O)CN(C)C1=O [PP0629],NRAS/KRAS (ratio of KD value with respect to GDP-bound NRAS wild-type protein to KD value with respect to KRAS),[1]; KD ratio NRAS/KRAS,B (a compound having 3 or more and less than 10 is denoted as B)
same,HRAS/KRAS (ratio of KD value with respect to GDP-bound HRAS wild-type protein to KD value with respect to KRAS),[2]; KD ratio HRAS/KRAS,C (A compound having a KD ratio of 0.1 or more and less than 3 is denoted as C)
CCC[C@H]1C(=O)N[C@@H]([C@@H](C)CC)C(=O)N(C)CC(=O)N(C)[C@H]2C/C=C\CCN(C2=O)[C@@H](Cc2ccc(C)cc2)C(=O)N(C)CC(=O)N[C@@H](CCc2ccc(C(F)(F)F)c(OC)c2)C(=O)N2C[C@@H](C)C[C@H]2C(=O)NC2(CC(C)(C)C2)C(=O)N(C)[C@@H](C2CCCC2)C(=O)N(C)[C@H](C(=O)N(C)CC)CC(=O)N1C [PP1889],NRAS/KRAS (ratio of KD value for NRAS to KD value for KRAS),[1]; [3],A (a compound having 10 or more and less than 20 is denoted as A)
same,HRAS/KRAS (ratio of KD value for HRAS to KD value for KRAS),[2]; [4],B (a compound having 3 or more and less than 10 is denoted as B)
CCC[C@@H]1C[C@H]2C(=O)NC3(CCCC3)C(=O)N(C)[C@@H](C3CCCC3)C(=O)N(C)[C@H](C(=O)N(C)CC)CC(=O)N(C)[C@@H](C)C(=O)N[C@@H]([C@@H](C)CC)C(=O)N(C)CC(=O)N(C)[C@H]3C/C=C\CCN(C3=O)[C@@H](Cc3ccc(C(F)(F)F)cc3)C(=O)N(C)CC(=O)N[C@@H](CCc3cc(F)c(C(F)(F)F)c(F)c3)C(=O)N2C1 [PP2272],NRAS/KRAS (ratio of KD value with respect to NRAS to KD value with respect to KRAS),[1]; [5],AA (a compound having 20 or more is denoted as AA)
same,HRAS/KRAS (ratio of KD value with respect to HRAS to KD value with respect to KRAS),[2]; [6],A (a compound having 10 or more and less than 20 is denoted as A)
CCO[C@@H]1C[C@H]2C(=O)NC3(CCCC3)C(=O)N(C)[C@@H](C3CCCC3)C(=O)N(C)[C@H](C(=O)N(C)C)CC(=O)N(C)[C@@H](CC(C)C)C(=O)N[C@@H]([C@@H](C)CC)C(=O)N(C)CC(=O)N(C)[C@H]3C/C=C\CCN(C3=O)[C@@H](Cc3ccc(C)cc3)C(=O)N(C)CC(=O)N[C@@H](CCc3ccc(C(F)(F)F)c(OC)c3)C(=O)N2C1 [PP2197],NRAS/KRAS (ratio of KD value with respect to NRAS to KD value with respect to KRAS),[1]; [5],A (a compound having 10 or more and less than 20 is denoted as A)
same,HRAS/KRAS (ratio of KD value with respect to HRAS to KD value with respect to KRAS),[2]; [6],B (a compound having 3 or more and less than 10 is denoted as B)
CCO[C@@H]1C[C@H]2C(=O)NC3(CCC3)C(=O)N(C)[C@@H](C3CCCC3)C(=O)N(C)[C@H](C(=O)N(C)C)CC(=O)N(C)[C@@H](CC3CC3)C(=O)N[C@@H]([C@@H](C)CC)C(=O)N(C)CC(=O)N(C)[C@H]3CCCCCN(C3=O)[C@@H](Cc3ccc(C(F)(F)F)cc3)C(=O)N(C)CC(=O)N[C@@H](CCc3cc(F)c(C(F)(F)F)c(F)c3)C(=O)N2C1 [PP0667],NRAS/KRAS (ratio of KD value with respect to GDP-bound NRAS wild-type protein to KD value with respect to KRAS),[1]; KD ratio NRAS/KRAS,B (a compound having 3 or more and less than 10 is denoted as B)
same,HRAS/KRAS (ratio of KD value with respect to GDP-bound HRAS wild-type protein to KD value with respect to KRAS),[2]; KD ratio HRAS/KRAS,B (a compound having 3 or more and less than 10 is denoted as B)
CC[C@H](C)[C@@H]1NC(=O)[C@H](CC)N(C)C(=O)C[C@@H](C(=O)N(C)C)N(C)C(=O)[C@H](C2CCCC2)N(C)C(=O)C2(CCC2)NC(=O)[C@@H]2CCCCN2C(=O)[C@H](CCc2cc(F)c(C(F)(F)F)c(F)c2)NC(=O)CN(C)C(=O)[C@H](Cc2ccc(C(F)(F)F)cc2)N2CC/C=C\C[C@@H](C2=O)N(C)C(=O)CN(C)C1=O [PP1136],NRAS/KRAS (ratio of KD value with respect to NRAS to KD value with respect to KRAS),[1]; [3],A (a compound having 10 or more and less than 20 is denoted as A)
same,HRAS/KRAS (ratio of KD value with respect to HRAS to KD value with respect to KRAS),[2]; [4],A (a compound having 10 or more and less than 20 is denoted as A)
CCC[C@H]1C(=O)N[C@@H]([C@@H](C)CC)C(=O)N(C)CC(=O)N(C)[C@H]2C/C=C\CCN(C2=O)[C@@H](Cc2ccc(C(F)(F)F)cc2)C(=O)N(C)CC(=O)N[C@@H](CCc2ccc(C(F)(F)F)c(Cl)c2)C(=O)N2CC3(CC3)C[C@H]2C(=O)NC2(CC(C)(C)C2)C(=O)N(C)[C@@H](CC(C)(C)C)C(=O)N(C)[C@H](C(=O)N(C)C)CC(=O)N1C [PP2979],NRAS/KRAS (ratio of KD value with respect to GDP-bound NRAS wild-type protein to KD value with respect to KRAS),"[1]; KD ratio NRAS/KRAS, GDP-bound wild-type proteins",A (a compound having 10 or more and less than 20 is denoted as A)
same,HRAS/KRAS (ratio of KD value with respect to GDP-bound HRAS wild-type protein to KD value with respect to KRAS),"[2]; KD ratio HRAS/KRAS, GDP-bound wild-type proteins",B (a compound having 3 or more and less than 10 is denoted as B)
CCCN1C(=O)CN(C)C(=O)CNC(=O)[C@H]([C@@H](C)CC)NC(=O)[C@H](CC(C)C)N(C)C(=O)C[C@@H](C(=O)N(C)C)NC(=O)[C@H](C2CCCC2)N(C)C(=O)C2(CCCC2)NC(=O)[C@@H]2C[C@@H](OCC)CN2C(=O)[C@H](CCc2ccc(C(F)(F)F)c(Cl)c2)NC(=O)CN(C)C(=O)[C@@H]1Cc1ccc(C(F)(F)F)cc1 [PP0365] ([NMeL]IG[Sar][NPrPhe(4-CF3)][Sar][hPhe(3-Cl-4-CF3)][Hyp](Et)[Ac5c][NMeGly(cPent)]D-NMe2; lactam N-11),NRAS/KRAS (ratio of KD for GDP-bound NRAS wild-type to KD for KRAS),[1]; KD ratio NRAS/KRAS,B (a compound having 3 or more and less than 10 is denoted as B)
same,HRAS/KRAS (ratio of KD for GDP-bound HRAS wild-type to KD for KRAS),[2]; KD ratio HRAS/KRAS,B (a compound having 3 or more and less than 10 is denoted as B)
